Holding throughout (test): product titer in engineered yeast by UHPLC
Common to all, as to type: cell-based

For experiment [1], the target named is T1, GgbAS (β-amyrin synthase from Glycyrrhiza glabra) (Glycyrrhiza glabra, UniProt Q9MB42).
T1 construct: gene bAS1; synthesized gene, one copy integrated in the genome of S. cerevisiae SP1, PGK1 promoter; whole-cell production
The note with it: endogenous substrate of S. cerevisiae, not added; 30 °C, 72 h shake flask.

Experiment [2] has as its target T2, OEW (lupeol synthase from Olea europaea) (Olea europaea, UniProt Q9SLW3).
T2 construct: synthesized gene, one copy integrated in the genome of S. cerevisiae SP1, PGK1 promoter; whole-cell production
T2 sequence (Q9SLW3 1-758): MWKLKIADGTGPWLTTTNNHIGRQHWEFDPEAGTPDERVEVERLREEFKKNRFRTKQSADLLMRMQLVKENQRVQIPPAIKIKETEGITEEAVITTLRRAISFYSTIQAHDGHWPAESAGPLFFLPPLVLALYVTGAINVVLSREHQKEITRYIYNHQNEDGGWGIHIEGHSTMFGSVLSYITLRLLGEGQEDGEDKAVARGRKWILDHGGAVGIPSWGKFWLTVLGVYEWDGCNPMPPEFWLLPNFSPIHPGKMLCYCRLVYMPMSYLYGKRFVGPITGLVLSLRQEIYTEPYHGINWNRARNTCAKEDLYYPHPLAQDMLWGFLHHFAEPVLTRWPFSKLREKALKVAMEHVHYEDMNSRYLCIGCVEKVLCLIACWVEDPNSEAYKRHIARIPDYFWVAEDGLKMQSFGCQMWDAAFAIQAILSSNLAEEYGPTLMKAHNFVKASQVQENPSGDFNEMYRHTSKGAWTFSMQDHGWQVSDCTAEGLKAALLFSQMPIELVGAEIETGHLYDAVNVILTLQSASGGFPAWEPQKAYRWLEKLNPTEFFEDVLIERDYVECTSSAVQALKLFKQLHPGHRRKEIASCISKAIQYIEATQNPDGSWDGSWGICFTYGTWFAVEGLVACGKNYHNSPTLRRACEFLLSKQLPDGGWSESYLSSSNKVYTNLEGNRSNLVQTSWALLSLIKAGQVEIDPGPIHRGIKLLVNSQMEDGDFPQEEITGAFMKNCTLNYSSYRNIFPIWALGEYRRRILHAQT
The note with it: endogenous substrate of S. cerevisiae, not added; 30 °C, 72 h shake flask.

Experiment [3] concerns the target T3, MdOSC1 (α-amyrin synthase from Malus × domestica) (Malus domestica, UniProt C7SCX0).
T3 construct: gene OSC1; synthesized gene, one copy integrated in the genome of S. cerevisiae SP1, PGK1 promoter; whole-cell production
As to conditions: endogenous substrate of S. cerevisiae, not added; 30 °C, 72 h shake flask; mixed product with β-amyrin.

T3 sequence (C7SCX0 entry or part of it): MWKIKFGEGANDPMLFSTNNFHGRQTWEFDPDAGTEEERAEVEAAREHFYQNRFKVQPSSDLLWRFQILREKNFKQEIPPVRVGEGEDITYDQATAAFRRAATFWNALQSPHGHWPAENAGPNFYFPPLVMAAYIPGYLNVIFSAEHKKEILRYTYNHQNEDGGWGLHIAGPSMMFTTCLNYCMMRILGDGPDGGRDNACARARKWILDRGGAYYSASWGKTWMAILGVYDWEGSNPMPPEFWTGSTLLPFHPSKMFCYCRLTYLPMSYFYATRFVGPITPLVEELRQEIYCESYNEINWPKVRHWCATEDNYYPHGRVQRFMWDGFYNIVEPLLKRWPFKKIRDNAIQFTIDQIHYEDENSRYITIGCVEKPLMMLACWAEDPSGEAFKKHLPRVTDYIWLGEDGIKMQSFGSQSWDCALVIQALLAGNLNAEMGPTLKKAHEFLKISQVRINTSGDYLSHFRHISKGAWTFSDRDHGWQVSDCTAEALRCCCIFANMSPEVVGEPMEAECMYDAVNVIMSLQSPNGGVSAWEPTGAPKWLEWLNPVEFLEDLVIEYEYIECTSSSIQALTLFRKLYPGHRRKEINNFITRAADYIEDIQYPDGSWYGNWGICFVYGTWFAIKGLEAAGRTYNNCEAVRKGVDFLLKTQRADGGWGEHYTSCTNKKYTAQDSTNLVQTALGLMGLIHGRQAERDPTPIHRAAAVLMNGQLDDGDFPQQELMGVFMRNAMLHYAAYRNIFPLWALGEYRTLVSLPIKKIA
T1 sequence (Q9MB42 whole entry): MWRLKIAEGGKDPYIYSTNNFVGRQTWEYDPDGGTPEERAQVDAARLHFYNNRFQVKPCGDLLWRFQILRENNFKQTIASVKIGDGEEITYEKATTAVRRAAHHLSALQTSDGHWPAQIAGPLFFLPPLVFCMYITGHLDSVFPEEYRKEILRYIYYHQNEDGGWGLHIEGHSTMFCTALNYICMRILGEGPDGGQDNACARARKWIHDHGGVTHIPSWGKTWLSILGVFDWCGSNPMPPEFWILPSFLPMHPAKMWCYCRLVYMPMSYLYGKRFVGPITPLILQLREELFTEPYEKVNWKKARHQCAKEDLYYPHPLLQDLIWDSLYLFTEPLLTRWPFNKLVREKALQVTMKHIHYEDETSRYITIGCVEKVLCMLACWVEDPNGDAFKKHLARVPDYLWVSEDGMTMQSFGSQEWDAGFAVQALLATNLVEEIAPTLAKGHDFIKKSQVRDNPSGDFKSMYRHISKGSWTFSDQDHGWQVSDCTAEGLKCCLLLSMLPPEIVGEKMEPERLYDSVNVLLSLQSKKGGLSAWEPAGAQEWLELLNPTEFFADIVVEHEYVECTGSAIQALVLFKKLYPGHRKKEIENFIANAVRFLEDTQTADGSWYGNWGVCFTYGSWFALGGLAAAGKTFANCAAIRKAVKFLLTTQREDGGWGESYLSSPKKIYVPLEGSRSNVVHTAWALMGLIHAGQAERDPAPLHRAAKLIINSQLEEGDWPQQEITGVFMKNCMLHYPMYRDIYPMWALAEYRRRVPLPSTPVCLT

For the compound `CC1(C)CC[C@]2(C)CC[C@]3(C)C(=CC[C@@H]4[C@@]5(C)CC[C@H](O)C(C)(C)[C@@H]5CC[C@]43C)[C@@H]2C1` [β-amyrin], in experiment [1], the “product titer in engineered yeast by UHPLC” value (“product titer” for short) was “higher titer and specific titer of β-amyrin than these of strain SP1 harboring the wild-type GgbAS”.
With `C=C(C)[C@@H]1CC[C@]2(C)CC[C@]3(C)[C@H](CC[C@@H]4[C@@]5(C)CC[C@H](O)C(C)(C)[C@@H]5CC[C@]43C)[C@@H]12` [lupeol], the “product titer” value in experiment [2] is listed as “increase in the production of lupeol compared with that of the strain SP1 harboring”.
In the case of `C[C@H]1[C@H](C)CC[C@]2(C)CC[C@]3(C)C(=CC[C@@H]4[C@@]5(C)CC[C@H](O)C(C)(C)[C@@H]5CC[C@]43C)[C@H]12` [α-amyrin], the “product titer” value in experiment [3] was “increase in the titer of α-amyrin and β-amyrin, compared with these of the strain SP1”.

(Values after PMC10850208, “Engineering amino acid residues of pentacyclic triterpene synthases for improving the activity” (Applied Microbiology and Biotechnology, 2024).)
